Data set [1] in a line: Electrometric titration (pKa). It counts as physicochemical. To be noted: electrometric titration in 66% aqueous dimethylformamide; read-out: pKa value of titratable group. The source says: Electrometric titration of DOMM in 66% aqueous dimethylformamide indicates the presence of a titratable group with a pKa value of about 7.14.
The next data set is described as follows: Solubility. It counts as physicochemical. Particulars: water and most polar organic solvents (acetone, methanol, ethanol, chloroform, dimethylformamide, dimethyl sulfoxide). The source says: DOMM acid addition salts are more soluble in water than is DOMM base.

Experimental findings from patent publication EP0045157A1, “Macrolide antibiotics, their preparation and veterinary compositions containing them” (ELI LILLY AND COMPANY, priority 1980, dated 1982) are described below.

For orientation: pKa means the negative logarithm of the acid dissociation constant.

As to `CCC1OC(=O)CC(O)C(C)C(OC2OC(C)C(OC3CC(C)(O)C(O)C(C)O3)C(N(C)C)C2O)C(CC=O)CC(C)C(=O)C=CC(C)=CC1COC1OC(C)C(O)C(O)C1O` (centres unmarked) [DOMM, 2"'-O-demethylmacrocin], the pKa in data set [1] is around 7.14. Further, the solubility result in the data set “Solubility” is “soluble in water and in most polar organic solvents”.
